The source of these data is the SangsterLogP compilation.

As usually defined, the logP is a log measure of how a compound divides between an organic and an aqueous phase.

A short description of the series: method code SF-GLC, from DOI: 10.1016/0048-3575(78)90090-1.
Take `COC1C(Cl)C(Cl)C(Cl)C(Cl)C1Cl` (stereo not given): the lipophilicity (logP) amounted to 3.14.

The molecule `ClC1C(Cl)C(Br)C(Cl)C(Cl)C1Br` (stereo not given) registered a log partition coefficient (logP) of 3.98.

As to `CC(=O)Oc1c(Cl)c(Cl)c(Cl)c(Cl)c1Cl`, the log partition coefficient (logP) was determined as 3.4.

For the molecule `OCC1C(Cl)C(Cl)C(Cl)C(Cl)C1Cl` (stereo not given), the log partition coefficient (logP) came to 2.94.

In the case of `OC1C(Cl)C(Cl)C(Cl)C(Cl)C1Cl` (stereo not given), the lipophilicity (logP) came to 2.54.

Turning to `CC1C(Cl)C(Cl)C(C)C(Cl)C1Cl` (stereo not given), the logP is 4.4.

In turn, `ClC1CC(Cl)C(Cl)C(Cl)C1Cl` (stereo not given) returned a logP of 3.53.

As for `ClC1C(Cl)C(Cl)C(Br)C(Cl)C1Cl` (stereo not given), the logP turned out to be 3.74.

The molecule `ClC1C(Cl)C(Cl)C(Br)C(Br)C1Cl` (stereo not given) showed a logP of 3.88.

As for `CC1C(Cl)C(Cl)C(Cl)C(Cl)C1Cl` (stereo not given), the logP is 4.04.

Molecule `FC1C(Cl)C(Cl)C(Cl)C(Cl)C1Cl` (stereo not given) came in with a logP of 3.19.

As to `COC1CC(Cl)C(Cl)C(Cl)C1Cl` (stereo not given), the logP was 2.99.

On to `FC1C(Cl)C(Cl)C(Cl)C(Cl)C1Br` (stereo not given), for which the logP was 3.28.

Molecule `ClC1CC(Cl)C(Cl)CC1Cl` (stereo not given) returned a logP of 2.82.

Molecule `COC1C(Cl)C(Cl)C(Cl)C(OC)C1OC` (stereo not given) gave a logP of 1.87.

`CCOC1C(Cl)C(Cl)C(Cl)C(Cl)C1Cl` (stereo not given) showed a logP of 3.69.

The molecule `ClC1C(Cl)C(Cl)C(I)C(Cl)C1Cl` (stereo not given) yielded a log partition coefficient (logP) of 3.96.

In turn, `COC1C(Cl)C(Cl)C(Cl)C(Cl)C1OC` (stereo not given) registered a logP of 2.55.

Molecule `FC(F)(F)COC1C(Cl)C(Cl)C(Cl)C(Cl)C1Cl` (stereo not given) showed a lipophilicity (logP) of 4.06.

Molecule `COC1C(Cl)C(Cl)C(OC)C(Cl)C1Cl` (stereo not given) returned a logP of 3.15.
